From the COVID Moonshot data (paper PMC11187573), “Identification of SARS-CoV-2 Mpro inhibitors through deep reinforcement learning for de novo drug design and computational chemistry approaches” (RSC Medicinal Chemistry, 2024)

Columns and labels:
[1] = biological target: SARS-CoV-2 Main Protease (SARS-CoV-2) (UniProt P0DTD1)
[2] = biological target: SARS-CoV-2 Main Protease (SARS-CoV-2) (UniProt P0DTD1); remark: listed apart in the source
trypsin = trypsin (UniProt P07477)
trypsin, sequence (P07477 whole entry, looked up): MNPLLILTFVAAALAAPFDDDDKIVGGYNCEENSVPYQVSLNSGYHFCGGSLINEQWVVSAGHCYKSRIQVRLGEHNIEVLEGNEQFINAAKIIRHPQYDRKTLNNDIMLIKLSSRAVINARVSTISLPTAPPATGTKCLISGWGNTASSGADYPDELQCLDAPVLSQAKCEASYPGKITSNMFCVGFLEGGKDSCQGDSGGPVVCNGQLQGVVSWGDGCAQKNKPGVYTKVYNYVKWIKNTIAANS

Row | SMILES | inhibition ([1]; 20.0 µM) | inhibition ([1]; 50.0 µM) | inhibition ([2]; 20.0 µM) | IC50 (trypsin) | relative solubility at 20 uM | relative solubility at 100 uM | IC50 [2] | inhibition ([2]; 50.0 µM)
1 | O=C(CCl)N1CCCc2cc(NCc3ccc(F)cc3Cl)ccc21 | 25.3% | 52.5% | 47.9% | 51.8 µM | 0.81 | 0.39 | – | –
2 | C=CC(=O)N(c1ccc(C(C)(C)C)cc1)C(C(=O)Nc1ccc2c(c1)OCO2)c1cccnc1 (centres undefined) | 41.1% | 60.4% | – | 72.5 µM | – | – | 62.1 µM | 100%
3 | O=C(NCc1cccc(C(=O)N2CCOCC2)c1)c1cnc2c(c1)c(=O)[nH]c(=O)n2Cc1ccccc1 | 2.69% | -3.76% | – | – | 0.99 | 0.9 | – | 0%
4 | COCC1CCN(c2ccc(S(N)(=O)=O)cc2)CC1 | – | -23.1% | 22.3% | – | 0.99 | 1 | – | 44%
5 | C=CC(=O)N(c1ccc(C2(C)CC2)cc1)C(C(=O)Nc1ccc(Br)cc1)c1cccnc1 (centres undefined) | – | 47.1% | 2.51% | 58.2 µM | 1 | 1.01 | 19.4 µM | 67.8%
6 | O=C(NCc1cccnn1)Nc1cccc(OCCN2CCOCC2)c1 | 1.16% | 1.22% | 0% | – | 1 | 0.99 | – | 0%
7 | O=C(CCl)NC(CO)c1cccc(Cl)c1 (centres undefined) | – | 51.6% | 16% | – | 1 | 0.99 | – | 45.3%
8 | CC(NC(=O)c1ccccc1OCC(N)=O)c1cnn(C)c1 (centres undefined) | -1.52% | 2.68% | 0% | – | 1 | 1 | – | 0%
9 | C#CCN1CCN(C(=O)C=C)CC1 | -18.6% | -15% | 3.23% | – | 1.01 | 1.01 | – | –
10 | Cc1cc(C)cc(NC(=O)Cn2cncc2C)c1 | -2.21% | 2.72% | – | – | 1 | 1 | – | 0%
11 | Cc1ccc(Oc2cccc(NC(=O)NCc3cnnn3C)c2)c(C)c1 | -10.7% | -12.8% | 0% | – | 0.96 | 0.75 | – | –
12 | Cc1ccncc1NC(=O)C1(c2cccc(Cl)c2)CC1 | 38.4% | 61.6% | – | – | 1.01 | 1 | – | 43.3%
13 | CC(C)CCNC(=O)C(CC(C)C)NC(=O)C1OC1C(=O)O (centres undefined) | 0.736% | -2.95% | – | – | 1 | 1 | – | 0%
14 | Cc1cc(Br)cc2c1N(CCBr)C(=O)C2=O | -3.94% | -4.22% | – | – | 1 | 1 | 16.7 µM | 95.6%
15 | O=C(Cn1c(=O)[nH]c2ccccc21)Nc1cccc(Cl)c1 | -4.28% | -9.78% | – | – | 1 | 0.64 | – | 0%
16 | CC(NC(=O)Nc1cccc(N2CCCCC2=O)c1)c1ccn[nH]1 (centres undefined) | -8.95% | -2.76% | – | – | 1 | 1 | – | 0%
17 | CC(NC(=O)C(Cc1ccccc1)NC(=O)c1ccco1)c1ncco1 (centres undefined) | – | -28% | 0% | – | 1 | 1 | – | 0%
18 | Cc1noc([C@@H](C)S(=O)(=O)Cc2cccc(C(F)(F)F)c2)n1 (stereo in doubt) | -7.05% | -6.94% | – | – | 1.01 | 1 | – | 0%
19 | COc1cc(CN2CCN(C(=O)CCl)CC2)c2ccccc2c1 | 82.8% | 90.9% | – | 81.7 µM | 1 | 0.95 | 1.62 µM | 100%

Row | SMILES | inhibition ([1]; 20.0 µM) | inhibition ([1]; 50.0 µM) | inhibition ([2]; 20.0 µM) | IC50 (trypsin) | relative solubility at 20 uM | relative solubility at 100 uM | IC50 [2] | inhibition ([2]; 50.0 µM)
20 | Cc1ccc(S(=O)(=O)N2CCN(C(=O)c3cc(=O)[nH]c4cc(F)ccc34)CC2)c(C)c1 | 21.8% | 48.1% | – | – | 1 | 0.92 | – | 11.4%
21 | CO[C@H](C)C(=O)N(C)c1cnccc1C (stereo in doubt) | 3.08% | 4.99% | – | – | 1.01 | 0.99 | – | 18%
22 | C=CC(=O)N(c1ccc2ncsc2c1)C(C(=O)Nc1ccc(Cl)cc1)c1cccnc1 (centres undefined) | 8.95% | 25.3% | 2.57% | – | 0.87 | 0.69 | – | –
23 | O=C(NCC(O)Cn1ccnn1)c1ccccc1OC1CCC1 (centres undefined) | -1.11% | 2.04% | 0% | – | 1 | 1 | – | 0%
24 | CC(=O)N1CCN(Cc2cn(-c3cccc(S(N)(=O)=O)c3)nn2)CC1 | -2.75% | 1.36% | 2.3% | – | 0.95 | 0.97 | – | 5.73%
25 | Cc1ccncc1NC(=O)CC1CCCNC1 (centres undefined) | -1.91% | 16.7% | – | – | 1 | 1 | – | 0%
26 | Cc1ccc(O)cc1NC(=O)C(C)(C)c1cccc(F)c1 | 1.12% | -11% | – | – | 1 | 0.92 | – | -0.631%
27 | O=C(c1cc(=O)[nH]c2ccc(F)cc12)N1CCN(S(=O)(=O)c2cccc(Cl)c2)CC1 | 1.39% | 25.7% | – | – | 0.98 | 0.87 | – | 52.8%
28 | CCC(NC(=O)C(C)n1cncn1)c1ccccc1OCC(=O)N1CCCC1 (centres undefined) | -0.907% | 0.701% | 0% | – | 1 | 0.99 | – | 0%
29 | CSc1ccncc1NC(=O)Cc1ccc2c(c1)CCCC2 | -1.16% | 11.6% | – | – | 0.99 | 0.67 | – | 0%
30 | Cc1noc(CC(NC(=O)C(C)Cn2ccnc2)c2ccccc2)n1 (centres undefined) | – | -2.38% | 0% | – | 1 | 1 | – | 0%
31 | O=C(Cc1cccc(Cl)c1)Nc1cnns1 | 4.12% | 3.34% | – | – | 0.99 | 0.99 | – | 48.7%
32 | C=CC(=O)N(c1ccc(C(C)(C)C)cc1)C(C(=O)NCC)c1cccnc1 (centres undefined) | 57% | 50.2% | 52.6% | – | 0.99 | 1 | 19.4 µM | 100%
33 | CC(=O)NCCc1cn(CC(=O)N2CCOCC2)c2ccccc12 | – | 6.56% | 0% | – | 0.97 | 0.96 | – | 0%
34 | CCOCC1CCN(c2ccc(S(N)(=O)=O)cc2)CC1 | – | 7.41% | 21.8% | – | 1 | 1 | – | 44.6%
35 | C=CC(=O)N(c1ccc(SC)cc1)C(C(=O)Nc1c(C)cccc1CC)c1cccnc1 (centres undefined) | 11.1% | 24.5% | 0% | – | 0.85 | 0.67 | – | –
36 | Cc1cccc(CC2CCN(C(=O)CCl)CC2)c1 | 62.9% | 90.5% | – | – | 1 | 1 | 4.49 µM | 87.1%
37 | O=C(NCCOc1ccccc1)c1cc(=O)[nH]c2ccccc12 | 12.7% | 54.6% | – | – | 1 | 1 | – | 3.05%
